Entries after “also recorded” stand apart in the source; their conditions may differ.
Columns and labels:
E. coli and K. oxytoca = experiment: P-AST species-pair interaction on antibiotic resistance (logistic regression, HSAP/UP); type: cell-based, Escherichia coli; Klebsiella oxytoca; conditions: E. coli and K. oxytoca together v. expected from each species alone (HSAP/UP)
Protocol: (§1) The Pooled Antibiotic Sensitivity Test (P-AST) is permitting the organisms identified to grow in the presence of antibiotics and measuring the minimum concentration of antibiotic to inhibit growth. Antibiotic susceptibility testing is performed when at least a single organism within a pool of organisms reaches a certain threshold, (e.g., at least 3,000 cells/ml, at least 5,000 cells/ml, at least 10,000 cells/ml, etc.) and can grow in the presence of the antibiotic in the assay within the time of testing. (Note: 10,000 cells/ml is equivalent to 10,000 CFU/ml.) The present invention is not limited to a 10,000 cells/mL threshold. These pools of organism(s) are inoculated into growth medium then placed onto an antibiotic laden “spec plate” that is then incubated and analyzed for growth. The breakpoints are derived from the CLSI breakpoints.
(§2) P-AST was performed by aliquoting 1 mL of patient urine specimen into a 1.7 mL microcentrifuge tube. After centrifugation, the supernatant was aspirated and discarded, leaving approximately 100 or 50 μL (minimum volume left above pellet created from centrifugation) of patient sample in the microcentrifuge tube. […] Optical density of samples was then read on a DensiCHEK plate reader. […] A spectrophotometer (plate reader) is used to measure optical density of the samples in wells of antibiotics and inoculum in order to determine if there is growth in a well. […]

[1] = tested on: E. coli and S. agalactiae; experiment: as above; type: cell-based, Escherichia coli; Streptococcus agalactiae; conditions: E. coli and S. agalactiae together v. expected from each species alone (HSAP/UP)
Protocol: as §1
(§3) P-AST was performed by aliquoting 1 mL of patient urine specimen into a 1.7 mL microcentrifuge tube. After centrifugation, the supernatant was aspirated and discarded, leaving approximately 100 or 50 μL (minimum volume left above pellet created from centrifugation) of patient sample in the microcentrifuge tube. One mL of Mueller Hinton Growth Media was then aliquoted into the patient sample in the microcentrifuge tube and the tubes were incubated at 35° C. in a non-CO2 incubator for 6 hours. Non-inoculated liquid MH-media is incubated as the negative control to confirm the media used is not contaminated. Those samples that reached a minimum threshold of 10,000 cells/mL were then diluted by aliquoting 0.5 mL of sample into a 50 mL conical tube containing Mueller Hinton Growth Media (in this example, the dilution was 1:60, e.g., 500 μL was added to 29.5 mL). 96-well plates pre-loaded with antibiotics were then inoculated with diluted samples and incubated along with control plates for 12-16 hours at 35° C. in a single layer. Optical density of samples was then read on a DensiCHEK plate reader. The DensiCHEK instrument is used to measure the concentration of turbid samples considered positive because PCR-ID result was >=10,000 cells/mL. The turbid samples were diluted/normalized to the same concentration and then added to a volume of liquid, e.g., 29.5 mL of liquid MH-media. A spectrophotometer (plate reader) is used to measure optical density of the samples in wells of antibiotics and inoculum in order to determine if there is growth in a well. The present invention is not limited to a concentration of 10,000 cells/mL.
Interactions between pairs of bacterial species were investigated using a logistic regression model to predict resistance in the presence of specific bacterial species. Bacterial species that tested positive in at least 30 samples were considered in the regression model: these 16 species were A. schaalii, A. urinae, A. omnicolens, CoNS, C. riegelii, E. faecalis, E. coli, K. oxytoca, K. pneumoniae, M. morganii, P. mirabilis, P. aeruginosa, S. aureus, S. agalactiae, U. urealyticum, VGS. Backward stepwise model selection was performed on the model with all main effects and all pairwise interactions using an enter significance level of α=0.10 and an exit significance level of α=0.05 to obtain the best fitting model. This model was used to predict resistance rates when a specific organism was present or when a specific pair of organisms were present.
Using the logistic regression model described above, the resistance rate for a pair of species was compared to the resistance rates for each species alone. […]

[2] = tested on: bacterial organisms present in patient urine sample; experiment: Antibiotic Resistance (ABR) assay utilizing liquid growth medium; type: cell-based; conditions: for Blanked (OD reading): blanked with Na-Azide well; for Mean (OD reading): raw OD600 of well; for Result (Resistant/Sensitive): threshold OD600 of 0.065
Protocol: Urine samples suitable for processing with this assay are collected, transported, and stored using BD Vacutainer tubes or other suitable leak-proof sterile containers. Urine samples may be held at room temperature for 48 hours before test results are compromised.
Antibiotic stocks are stored at 2-8° C. and protected from direct sunlight. Prepared antibiotic stock solutions were aliquoted into a 96-deep well plate (ThermoFisher Scientific) to form a 50× Antibiotic Source Plate and then diluted 1:5 to form a 10× Antibiotic Source Plate, as shown in FIG. 12 where each well is identified by antibiotic name and concentration (μg/mL; 10× final concentration). […] One well was assigned sodium azide to ensure no bacterial growth would be observed in that well.
Twenty microliters of each antibiotic solution were aliquoted into the pre-determined wells of a 96-well microplate (VIS 96/F-PS, Eppendorf) from the 10× Antibiotic Source Plate to create ABR testing plates for inoculation. These ABR testing plates were allowed to sit for up to 24 hours before use at 2-8° C. in the dark.
At the time of testing, urine samples were centrifuged to concentrate any bacterial cells and then mixed with liquid Mueller-Hinton medium and incubated for 6-16 hours at 37° C. After this initial incubation, the sample is diluted to 0.5-0.6 McF in saline and then 500 μl of that suspension was added to […] of Mueller-Hinton medium. One-hundred and eighty microliters of the diluted sample is then aliquoted to each well of the ABR microplate already containing 10× antibiotic solution, bringing all of the antibiotics to the desired final concentration. The plate is then sealed and incubated for 12-16 hours at 37° C.
After incubation, the plate was removed from the incubator and carefully uncovered and the OD600 was determined for each appropriate well by spectrophotometer. Five separate measurements were taken of each well on a plate and the mean OD600 measurement calculated for each well.
Controls are depicted in Table 10.
The raw data was then “blanked” using the measurement obtained from the Na-Azide well, as depicted in Table 14.
To determine whether bacterial organisms present in the patient samples were resistant or sensitive to a particular antibiotic at a certain concentration, blanked OD readings were compared to a threshold OD600 of 0.065 (Table 15). An OD measurement greater than or equal to this threshold was designated Resistant (R) meaning bacterial organisms present in patient sample were resistant to that particular antibiotic at that certain concentration. Any OD measurement less than this threshold was designated Sensitive (S) meaning bacterial organisms present in patient sample were sensitive to that particular antibiotic at that certain concentration.

[3] = tested on: bacteria detected in patient urine specimens; experiment: Pooled Antibiotic Susceptibility Testing (P-AST) of urine specimens, polymicrobial v. monomicrobial (logistic regression); type: cell-based; conditions: urine specimens, 95% confidence interval in parentheses
Description: The present invention describes Pooled Antibiotic Susceptibility Testing (P-AST), which involves simultaneously growing all detected bacteria together in the presence of antibiotics and then measuring susceptibility. […] Urine specimens were obtained from patients presenting with UTI-like symptoms to 37 urology clinics. The odds of resistance were estimated for 18 antibiotics relative to increasing numbers of bacterial species in a specimen.
The following study combines data from two studies of antibiotic resistance patterns in elderly patients presenting with symptoms consistent with a UTI. […] All subjects met the following inclusion and exclusion criteria. Inclusion criteria included: symptoms of acute cystitis, complicated UTI, persistent UTI, recurrent UTI, prostatitis, pyelonephritis, interstitial cystitis (at any age), symptoms of other conditions at years of age, specimen volumes sufficient to permit urine culture and Multiplex Polymerase Chain Reaction (M-PCR) combined with Pooled Antibiotic Sensitivity Testing (P-AST), patient informed consented, documented times at which the specimens were collected and stabilized with boric acid in grey-top tubes. Exclusion criteria included prior participation in this study, antibiotics taken for any reason other than UTI at the time of enrollment, chronic (≥10 days) indwelling catheters, self-catheterization, and urinary diversion.
(§4) The Pooled Antibiotic Sensitivity Test (P-AST) is permitting the organisms identified to grow in the presence of antibiotics and measuring the minimum concentration of antibiotic to inhibit growth. Antibiotic susceptibility testing is performed when at least a single organism within a pool of organisms reaches a certain threshold, (e.g., at least 3,000 cells/ml, at least 5,000 cells/ml, at least 10,000 cells/ml, etc.) and can grow in the presence of the antibiotic in the assay within the time of testing. […] These pools of organism(s) are inoculated into growth medium then placed onto an antibiotic laden “spec plate” that is then incubated and analyzed for growth. The breakpoints are derived from the CLSI breakpoints.

[4] = tested on: Coagulase-negative Staphylococcus (CoNS) and E. faecalis; experiment: P-AST species-pair interaction on antibiotic resistance (logistic regression, HSAP/UP); type: cell-based, Coagulase negative staphylococci; Enterococcus faecalis; conditions: CoNS and E. faecalis together v. expected from each species alone (HSAP/UP)
Protocol: as §1, §2

[5] = tested on: Coagulase-negative Staphylococcus (CoNS) and K. pneumoniae; experiment: as above; type: cell-based, Coagulase negative staphylococci; Klebsiella pneumoniae; conditions: CoNS and K. pneumoniae together v. expected from each species alone (HSAP/UP)
Protocol: as §1, §3
Interactions between pairs of bacterial species were investigated using a logistic regression model to predict resistance in the presence of specific bacterial species. […]

[6] = tested on: Coagulase-negative Staphylococcus (CoNS) and S. agalactiae; conditions: CoNS and S. agalactiae together v. expected from each species alone (HSAP/UP)
Protocol: as §4
P-AST was performed by aliquoting 1 mL of patient urine specimen into a 1.7 mL microcentrifuge tube. After centrifugation, the supernatant was aspirated and discarded, leaving approximately 100 or 50 μL (minimum volume left above pellet created from centrifugation) of patient sample in the microcentrifuge tube. One mL of Mueller Hinton Growth Media was then aliquoted into the patient sample in the microcentrifuge tube and the tubes were incubated at 35° C. in a non-CO2 incubator for 6 hours. […] Those samples that reached a minimum threshold of 10,000 cells/mL were then diluted by aliquoting 0.5 mL of sample into a 50 mL conical tube containing Mueller Hinton Growth Media (in this example, the dilution was 1:60, e.g., 500 μL was added to 29.5 mL). 96-well plates pre-loaded with antibiotics were then inoculated with diluted samples and incubated along with control plates for 12-16 hours at 35° C. in a single layer. Optical density of samples was then read on a DensiCHEK plate reader. The DensiCHEK instrument is used to measure the concentration of turbid samples considered positive because PCR-ID result was >=10,000 cells/mL. The turbid samples were diluted/normalized to the same concentration and then added to a volume of liquid, e.g., 29.5 mL of liquid MH-media. A spectrophotometer (plate reader) is used to measure optical density of the samples in wells of antibiotics and inoculum in order to determine if there is growth in a well.
Interactions between pairs of bacterial species were investigated using a logistic regression model to predict resistance in the presence of specific bacterial species. Bacterial species that tested positive in at least 30 samples were considered in the regression model: these 16 species were A. schaalii, A. urinae, A. omnicolens, CoNS, C. riegelii, E. faecalis, E. coli, K. oxytoca, K. pneumoniae, M. morganii, P. mirabilis, P. aeruginosa, S. aureus, S. agalactiae, U. urealyticum, VGS. […]

[7] = antibiotic 1 μg/mL, liquid medium
[8] = antibiotic 2 μg/mL, liquid medium
[9] = antibiotic 4 μg/mL, liquid medium
[10] = antibiotic 8 μg/mL, liquid medium
[11] = antibiotic 16 μg/mL, liquid medium
[12] = antibiotic 32 μg/mL, liquid medium

CO/N=C(\C(=O)N[C@@H]1C(=O)N2C(C(=O)[O-])=C(C[N+]3(C)CCCC3)CS[C@H]12)c1csc(N)n1 [Cefepime, cefepime]
change in antibiotic resistance of the pair of organisms (E. coli and K. oxytoca): decrease in resistance; also recorded: decreased odds of resistance | change in antibiotic resistance of the pair of organisms [1]: decrease in resistance; also recorded: decreased odds of resistance | Blanked (OD600 minus Na-Azide well) [2, 7]: 0.1959 | Mean (OD600) [2, 7]: 0.2416 | Blanked (OD600 minus Na-Azide well) [2, 8]: 0.1970 | Mean (OD600) [2, 8]: 0.2427 | Blanked (OD600 minus Na-Azide well) [2, 9]: 0.1960 | Mean (OD600) [2, 9]: 0.2417 | Blanked (OD600 minus Na-Azide well) [2, 10]: 0.1947 | Mean (OD600) [2, 10]: 0.2404 | Blanked (OD600 minus Na-Azide well) [2, 11]: 0.1866 | Mean (OD600) [2, 11]: 0.2323 | Blanked (OD600 minus Na-Azide well) [2, 12]: 0.1824 | Mean (OD600) [2, 12]: 0.2281

gentamicin
Odds Ratio of Resistance Polymicrobial v. Monomicrobial [3]: 1.17 (0.90, 1.51) | Odds Ratio of Resistance for Each Additional Species [3]: 1.01 (0.92, 1.11) | change in antibiotic resistance of the pair of organisms [4]: decrease in resistance; also recorded: decreased odds of resistance | change in antibiotic resistance of the pair of organisms [5]: decrease in resistance; also recorded: decreased odds of resistance | Blanked (OD600 minus Na-Azide well) [2, 9]: 0.0158 | Mean (OD600) [2, 9]: 0.0615 | Blanked (OD600 minus Na-Azide well) [2, 11]: −0.0031 | Mean (OD600) [2, 11]: 0.0426 | Blanked (OD reading) ([2]; antibiotic concentration 4): 0.0158 | Mean (OD reading) ([2]; antibiotic concentration 4): 0.0615 | Result (Resistant/Sensitive) ([2]; antibiotic concentration 4): S (Any OD measurement less than this threshold was designated Sensitive (S)) | Blanked (OD reading) ([2]; antibiotic concentration 16): −0.0031 | Mean (OD reading) ([2]; antibiotic concentration 16): 0.0426 | Result (Resistant/Sensitive) ([2]; antibiotic concentration 16): S (Any OD measurement less than this threshold was designated Sensitive (S)) | overall sensitivity of the bacteria in the sample to the antibiotic (in words) ([2]; liquid medium, Example 4 sample): sensitive | change in antibiotic resistance of the pair of organisms [6]: decrease in resistance; also recorded: decreased odds of resistance

— patent US20210301315A1, “METHODS FOR TREATING POLYMICROBIAL INFECTIONS” (priority 2017, published 2021)
